# Values joined by “and” are separate entries in the source; they are usually repeats but may differ in a detail not shown here. Equal values may be shown once. Read-outs that look alike come from different tables or passages of the source.
# Key:
# Format in all cases: cell-based
# [1] = system: GluATCVlong (GluA1/KcvATCV-1 chimera); assay: Two-electrode voltage clamp of GluATCVlong expressing Xenopus oocytes
# Description: (§1) The GluATCV constructs were generated by replacing the nucleotide sequence encoding amino acids 538–629 (GluATCVlong), 634 (GluATCV short) and 642 (GluATCV) of the mature GluA1 by the KcvATCV-1 sequence with the use of XhoI and NheI. The GluATCV^ΔNTD and GluATCV^ΔM4 constructs were generated by excising the nucleotide sequence encoding amino acids 19–394 and upstream of 784 of the mature GluA1 by deletion PCR, respectively. All constructs were confirmed by DNA sequencing (Seqlab, Göttingen, Germany).
# cRNAs were synthesized by using the AmpliCap-Max™ T7 High Yield Message Maker Kit of Cellscript (Madison, Wi, USA) with the plasmid linearized by AatII. X. laevis oocytes were used for two electrode voltage-clamp (TEVC) electrophysiology as previously described. Oozytes were surgically obtained from female X. laevis after anesthesia with 0.1% Tricaine in water under the approval of the Technical University of Darmstadt (Agreement V54-19c20/15 DA8/Anz. 20). After the harvest, oocytes were incubated for 1 h in 0.8 mg collagenase in frog ringer [96 mM NaCl, 2 mM KCl, 1 mM CaCl2,1 mM MgCl2, and 5 mM HEPES (pH 7.4 with NaOH)][53]. […] The TEVC recordings were performed at room temperature with an Axoclamp 900A amplifier, digitized with a Digidata 1550A at 5 kHz after low-pass filtering at 200 Hz and recorded with Clampex 10.7 (Molecular Devices, San Jose, USA). […]
# [2] = system: GluATCV (GluA1/KcvATCV-1 chimera); assay: Two-electrode voltage clamp of GluATCV expressing Xenopus oocytes
# Description: as §1
# (§2) cRNAs were synthesized by using the AmpliCap-Max™ T7 High Yield Message Maker Kit of Cellscript (Madison, Wi, USA) with the plasmid linearized by AatII. X. laevis oocytes were used for two electrode voltage-clamp (TEVC) electrophysiology as previously described. Oozytes were surgically obtained from female X. laevis after anesthesia with 0.1% Tricaine in water under the approval of the Technical University of Darmstadt (Agreement V54-19c20/15 DA8/Anz. 20). After the harvest, oocytes were incubated for 1 h in 0.8 mg collagenase in frog ringer [96 mM NaCl, 2 mM KCl, 1 mM CaCl2,1 mM MgCl2, and 5 mM HEPES (pH 7.4 with NaOH)][53]. After the treatment and a washing step with Ca^2+ free ringer [96 mM NaCl, 2 mM KCl,1 mM MgCl2, and 5 mM HEPES (pH 7.4 with NaOH)] oocytes of stage V and VI were selected and defolliculated by pipetting with a burned glass-Pasteur-pipette. For electrophysiological analysis, oocytes were injected with 50 ng in a volume of 50 nl of the respective construct. After injection the oocytes were incubated in ND-96 solution (96 mM NaCl, 2 mM KCl, 1 mM CaCl2, 1 mM MgCl2, 5 mM HEPES, pH 7.4 with NaOH) at 18 °C for 3–5 days until the electrophysiological measurements. The TEVC recordings were performed at room temperature with an Axoclamp 900A amplifier, digitized with a Digidata 1550A at 5 kHz after low-pass filtering at 200 Hz and recorded with Clampex 10.7 (Molecular Devices, San Jose, USA). For recording the microelectrodes were filled with 3 M KCl (resistance 0.8–2.8 MΩ in external solution) and the oocytes were clamped at −70 mV. The external solution was a modified ringer solution containing 100 mM KCl; 10 mM HEPES; 1.8 mM CaCl2; 1 mM MgCl2 (pH 7.4 with KOH) alone or containing agonist.
# (§3) Permeability ratio was calculated by the shift of the reversal potential with the Goldman–Hodgkin–Katz equation under bi-ionic conditions PNa^+/PK^+=expΔErev*F/R*T [27]. The amplitude was measured with KielPatch and also the open probability in bilayer measurements was analyzed by the build in Hinkley-jump-detector of KielPatch (http://www.zbm.uni-kiel.de/aghansen/software.html). Values given represent means ± SEM. Statistical significance was determined at the p < 0.05 (*), p < 0.01 (**), and p < 0.001 (***) levels using a Student’s two-tailed, unpaired two-side t-test or ANOVA (in case of more groups) and a Tukey post-hoc analysis (Prism 7.00). All data are shown as boxplots with a center line representing the median; box limits are the upper and lower quartiles; whiskers representing min and max.
# [3] = system: GluATCVshort (GluA1/KcvATCV-1 chimera); assay: Two-electrode voltage clamp of GluATCVshort expressing Xenopus oocytes
# Description: as §1
# (§4) cRNAs were synthesized by using the AmpliCap-Max™ T7 High Yield Message Maker Kit of Cellscript (Madison, Wi, USA) with the plasmid linearized by AatII. X. laevis oocytes were used for two electrode voltage-clamp (TEVC) electrophysiology as previously described. […] The TEVC recordings were performed at room temperature with an Axoclamp 900A amplifier, digitized with a Digidata 1550A at 5 kHz after low-pass filtering at 200 Hz and recorded with Clampex 10.7 (Molecular Devices, San Jose, USA). […]
# (§5) Permeability ratio was calculated by the shift of the reversal potential with the Goldman–Hodgkin–Katz equation under bi-ionic conditions PNa^+/PK^+=expΔErev*F/R*T [27]. The amplitude was measured with KielPatch and also the open probability in bilayer measurements was analyzed by the build in Hinkley-jump-detector of KielPatch (http://www.zbm.uni-kiel.de/aghansen/software.html). […]
# GluATCV*^ΔNTD = GluATCV*^ΔNTD (Rattus norvegicus, UniProt P19490, L497Y); settings: GluATCV*^ΔNTD oocytes, saturating glutamate concentrations, n = 5
# GluATCV*^ΔNTD, sequence (P19490 with tags, fused parts or gaps L497Y): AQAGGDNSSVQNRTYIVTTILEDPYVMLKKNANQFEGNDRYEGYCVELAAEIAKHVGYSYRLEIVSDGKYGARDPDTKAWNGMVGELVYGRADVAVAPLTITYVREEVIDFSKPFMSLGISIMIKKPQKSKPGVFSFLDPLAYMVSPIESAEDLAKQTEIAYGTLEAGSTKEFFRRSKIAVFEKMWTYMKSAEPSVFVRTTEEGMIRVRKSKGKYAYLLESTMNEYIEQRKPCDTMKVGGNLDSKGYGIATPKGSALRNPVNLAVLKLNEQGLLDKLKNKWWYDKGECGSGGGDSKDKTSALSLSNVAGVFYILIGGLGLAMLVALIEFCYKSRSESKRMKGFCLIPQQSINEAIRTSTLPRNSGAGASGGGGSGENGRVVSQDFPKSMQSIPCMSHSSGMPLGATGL
# GluATCV*^ΔNTD, sequence (A7K9J5 1-82 partner): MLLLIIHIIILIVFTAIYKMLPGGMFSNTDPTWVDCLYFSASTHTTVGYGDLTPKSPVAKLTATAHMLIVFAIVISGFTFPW
# Description: as §1, §2, §3
# [4] = target: GluATCV* (GluATCV G614S/F615L) (Rattus norvegicus, UniProt P19490, L497Y); settings: GluATCV* oocytes; for Glutamate-induced fraction of the Ba^2+-block (IGlu/IBa): fraction of total Ba^2+-sensitive current
# GluATCV* (GluATCV G614S/F615L), sequence (A7K9J5 entry or part of it G77S/F78L): as the sequence (A7K9J5 1-82 partner) above
# GluATCV* (GluATCV G614S/F615L), sequence (P19490 other isoform, or with tags, fused parts or gaps L497Y): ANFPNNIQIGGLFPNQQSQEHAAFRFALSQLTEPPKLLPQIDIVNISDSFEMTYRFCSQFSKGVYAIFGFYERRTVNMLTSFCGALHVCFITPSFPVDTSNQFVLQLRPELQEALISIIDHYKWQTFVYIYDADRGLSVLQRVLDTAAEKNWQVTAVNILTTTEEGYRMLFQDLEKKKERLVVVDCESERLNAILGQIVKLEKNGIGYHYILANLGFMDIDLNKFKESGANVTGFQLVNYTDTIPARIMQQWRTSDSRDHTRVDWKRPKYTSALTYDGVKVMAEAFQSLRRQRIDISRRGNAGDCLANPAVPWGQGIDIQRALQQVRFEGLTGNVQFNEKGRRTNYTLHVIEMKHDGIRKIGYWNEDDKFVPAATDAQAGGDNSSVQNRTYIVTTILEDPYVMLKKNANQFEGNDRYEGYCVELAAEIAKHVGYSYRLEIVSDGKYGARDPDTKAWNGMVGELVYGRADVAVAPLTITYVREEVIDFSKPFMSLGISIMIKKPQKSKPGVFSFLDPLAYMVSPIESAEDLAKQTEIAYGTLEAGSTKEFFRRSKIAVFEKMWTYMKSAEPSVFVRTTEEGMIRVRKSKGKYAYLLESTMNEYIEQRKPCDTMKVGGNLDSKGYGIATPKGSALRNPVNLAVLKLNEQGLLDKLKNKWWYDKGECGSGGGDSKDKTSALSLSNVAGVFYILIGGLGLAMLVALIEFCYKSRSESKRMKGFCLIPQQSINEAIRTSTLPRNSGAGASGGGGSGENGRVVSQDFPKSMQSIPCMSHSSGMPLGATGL
# Description: as §1, §2, §3
# [5] = target: T1, GluA1 glutamate receptor carrying the mutation L479Y (Rattus norvegicus, UniProt P19490, L497Y); assay: Two-electrode voltage clamp of GluA1 expressing Xenopus oocytes; settings: CNQX IC50, GluA1 (L479Y) oocytes, in the presence of 5 µM glutamate (EC50), n = 5
# T1 construct: expressed in transfected cells; host or cells: Xenopus laevis oocytes (cRNA injection)
# T1 sequence (P19490 19-907 L497Y): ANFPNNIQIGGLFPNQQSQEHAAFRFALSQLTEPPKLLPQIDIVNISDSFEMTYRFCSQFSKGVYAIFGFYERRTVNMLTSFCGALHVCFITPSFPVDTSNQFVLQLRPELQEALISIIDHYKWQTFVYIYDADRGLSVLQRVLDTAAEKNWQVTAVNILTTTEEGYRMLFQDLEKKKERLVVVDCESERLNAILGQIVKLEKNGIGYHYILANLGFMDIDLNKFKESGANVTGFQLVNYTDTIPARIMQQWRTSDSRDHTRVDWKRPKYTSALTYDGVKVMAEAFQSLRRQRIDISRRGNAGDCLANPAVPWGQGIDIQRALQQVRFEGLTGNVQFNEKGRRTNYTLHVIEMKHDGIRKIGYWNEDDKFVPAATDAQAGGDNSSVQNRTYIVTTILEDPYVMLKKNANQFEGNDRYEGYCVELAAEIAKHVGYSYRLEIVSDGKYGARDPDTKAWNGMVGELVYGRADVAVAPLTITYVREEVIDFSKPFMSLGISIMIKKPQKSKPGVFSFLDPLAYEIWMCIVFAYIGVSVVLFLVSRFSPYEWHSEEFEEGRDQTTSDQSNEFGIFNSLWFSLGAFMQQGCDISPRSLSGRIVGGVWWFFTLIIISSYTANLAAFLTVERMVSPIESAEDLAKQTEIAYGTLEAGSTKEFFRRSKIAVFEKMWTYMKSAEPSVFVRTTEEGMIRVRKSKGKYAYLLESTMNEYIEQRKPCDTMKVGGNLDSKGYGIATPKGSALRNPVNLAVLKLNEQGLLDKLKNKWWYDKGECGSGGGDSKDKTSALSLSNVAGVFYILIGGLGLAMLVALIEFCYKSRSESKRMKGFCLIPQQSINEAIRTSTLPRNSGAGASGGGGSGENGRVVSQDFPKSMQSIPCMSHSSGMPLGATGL
# Description: as §1, §4, §5
smiles,measurement,setting,value
"N[C@@H](CCC(=O)O)C(=O)O [glutamate, L-glutamate]",Response to Glu application,[1],remained insensitive
same,Glutamate-induced fraction of the Ba^2+-block (IGlu/IBa),"[2]; fraction of total Ba^2+-sensitive current, n = 5",36.4 ± 4.6%
same,Glu-elicited current amplitude,"[2]; −70 mV, n = 10",0.4 ± 0.3 µA
same,Currents in response to glutamate,[3]; 1 mM glutamate,could not elicit any currents
same,Imax,GluATCV*^ΔNTD,1.0 ± 0.26 µA
same,Glutamate-induced fraction of the Ba^2+-block (IGlu/IBa),[4]; n = 5,68.2 ± 5.2** %
same,Glutamate-induced fraction of the Ba^2+-block (IGlu/IBa),"[4]; n = 5, listed as Glu",68.2 ± 5.2%
same,Glu-inducible current amplitude (IGlu),[4]; n = 5,0.7 ± 0.2 µA
"N#Cc1cc2nc(O)c(O)nc2cc1[N+](=O)[O-] [CNQX, 6-cyano-7-nitroquinoxaline-2,3-dione]",IC50,[5],2.2 µM and 2 µM
[Ba+2] [Ba^2+],Maximal Ba^2+-sensitive currents,[2],1.0 ± 0.3 µA
same,Block of initial leakage and Glu-evoked currents by Ba^2+,[2]; 500 µM Ba^2+,could be blocked
same,Ba^2+-block of the leakage current,"[2]; −70 mV, n = 5",84.4 ± 2.3%
same,Ba^2+-block of the leakage current,"[3]; −70 mV, absence of agonist, 500 µM Ba^2+, n = 5",93.5 ± 1.6%
same,Block of glutamate-induced and leakage currents by Ba^2+,[4],could be efficiently blocked
same,Maximal Ba^2+-sensitive currents,[4],0.8 ± 0.2 µA
same,Ba^2+-block of the leakage current,"[4]; −70 mV, n = 5",32.9 ± 10.8*** %
